{"source": "paper PMC11344719", "about": "“Peptidomimetic inhibitors of the VEGF-A165/NRP-1 complex obtained by modification of the C-terminal arginine” (Amino Acids, 2024)", "key": {"VEGF-A165/NRP-1 complex": {"target": "T1, VEGF-A165/NRP-1 complex (Homo sapiens, UniProt O14786)", "T1 construct": "purchased BioLegend (NRP-1); Abcam (biotinylated VEGF-A165)", "T1 sequence (O14786 22-641 limits assumed)": "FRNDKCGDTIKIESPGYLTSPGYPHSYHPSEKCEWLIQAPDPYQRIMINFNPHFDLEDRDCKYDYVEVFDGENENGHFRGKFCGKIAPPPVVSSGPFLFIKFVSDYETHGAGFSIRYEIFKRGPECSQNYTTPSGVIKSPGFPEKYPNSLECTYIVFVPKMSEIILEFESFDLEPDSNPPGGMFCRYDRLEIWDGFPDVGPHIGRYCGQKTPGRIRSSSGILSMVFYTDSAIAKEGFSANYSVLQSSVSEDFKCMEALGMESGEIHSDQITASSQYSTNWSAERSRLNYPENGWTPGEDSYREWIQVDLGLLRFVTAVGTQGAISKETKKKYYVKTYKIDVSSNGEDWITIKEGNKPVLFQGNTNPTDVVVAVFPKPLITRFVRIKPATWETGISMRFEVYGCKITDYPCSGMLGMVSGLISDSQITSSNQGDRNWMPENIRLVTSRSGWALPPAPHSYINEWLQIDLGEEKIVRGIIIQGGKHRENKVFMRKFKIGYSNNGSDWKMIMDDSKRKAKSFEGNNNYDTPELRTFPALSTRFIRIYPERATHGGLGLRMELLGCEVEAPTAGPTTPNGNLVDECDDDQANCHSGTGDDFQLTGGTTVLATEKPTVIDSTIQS", "assay": "competitive ELISA: inhibition of (bt)-VEGF-A165 binding to NRP-1", "conditions": "recombinant human NRP-1; mean ± SD of three independent experiments; tested in the concentrations range 100–3.12 μM", "experimental": "Inhibitory activity of the synthesized peptides was measured by a competitive ELISA test, following a protocol similar to the one previously described (Puszko et al. [2019]). […] Nonspecific binding was blocked with 0.5% BSA (BioShop, Canada) in PBS (Bioshop, Canada). Then, 50 μl peptide in PBS in the selected concentrations and 50 μl (400 ng/ml) human […] VEGF-A165 (Abcam, Cambridge, UK) in PBS containing 4 μg/ml heparin (Bioshop, Canada) were added. After 2 h of incubation at RT, the plate was washed and treated with ECL Streptavidin-Horseradish Peroxidase conjugate (GE Healthcare, Little Chalfont, UK) in PBS (1:100) for 45 min. After the final wash the chemiluminescence was quantified immediately after addition of 100 μl chemiluminescent substrate (SuperSignal ELISA Pico Chemiluminescent Substrate; Pierce Biotechnology, Rockford, IL, USA). Wells incubated with (bt)-VEGF-A165 served as a positive control (P), while wells not-coated with NRP-1 were used as a negative control (NS). […] Half-maximal inhibitory concentration (IC50, [μM]) values (mean ± SD of three independent experiments were determined by nonlinear regression analysis (log(inhibitor) vs. normalized response-variable slope) generated in GraphPad Prism 9.0.0 program (Graph Pad, San Diego, CA, USA). In order to verify the accuracy of the design assumptions, a modified competitive enzyme-linked immunosorbent assay (ELISA) was used to evaluate the inhibitory activity of the designed peptidomimetics against VEGF-A165/NRP-1 complex formation. In addition to the parent compounds (1 and 2), heptapeptide […] was used for the sake of comparison."}, "NRP1-b1": {"target": "NRP1-b1", "set-up": "method as in Mota et al. 2018", "conditions": "SPR; ref Mota et al. 2018; cited from earlier work"}, "PAE/NRP1 cells": {"system": "PAE/NRP1 cells", "set-up": "method as in Jarvis et al. 2010", "conditions": "125I-VEGF, ref Jarvis et al. 2010, cited from earlier work"}, "[1]": {"system": "recombinant rat NRP-1/Fc chimera", "set-up": "method as in Starzec et al. 2007", "conditions": "125I-VEGF, ref Starzec et al. 2007; cited from earlier work"}, "[2]": {"set-up": "method as in Tymecka et al. [2018]", "conditions": "ref Tymecka et al. [2018]; cited from earlier work"}}, "note": "Square brackets hold non-standard residues; d marks the D form. Ends that are not written are not given here. Peptide text beside a SMILES is read from it. Phe(4-CH2NH2) = NCc1ccc(C[C@H](N)C(=O)O)cc1; hArg = N=C(N)NCCCC[C@H](N)C(=O)O; Cit = NC(=O)NCCC[C@H](N)C(=O)O; Agb = N=C(N)NCC[C@H](N)C(=O)O; Agp = N=C(N)NC[C@H](N)C(=O)O; Dab = NCC[C@H](N)C(=O)O; Dap = NC[C@H](N)C(=O)O"}
{"compound": "N=C(N)NCCCC[C@H](N)C(=O)NCCCC[C@H](N)C(=O)N[C@@H](CN)C(=O)N1CCC[C@H]1C(=O)N[C@@H](Cc1ccc(CN)cc1)C(=O)O", "note": "[Compound 11, Lys(Har)-Dap-Pro-Phe(4-CH2-NH2)] (H-K(hArg)[Dap]P[Phe(4-CH2NH2)]-OH)", "values": [{"measurement": "IC50", "setting": "VEGF-A165/NRP-1 complex", "result": "22.8 ± 5.9", "unit": "µM"}]}
{"compound": "NC(N)=NCCC[C@H](NC(=O)OCc1ccccc1)C(=O)O", "note": "[Compound D10, Nα-Cbz-Arg-OH]", "values": [{"measurement": "Kd", "setting": "NRP1-b1", "result": 17, "unit": "µM"}]}
{"compound": "N=C(N)NCCCC[C@H](N)C(=O)NCCCC[C@H](N)C(=O)N[C@@H](CCN)C(=O)N1CCC[C@H]1C(=O)N[C@@H](CNC(=N)N)C(=O)O", "note": "[Compound 8, Lys(Har)-Dab-Pro-Agp] (H-K(hArg)[Dab]P[Agp]-OH)", "values": [{"measurement": "IC50", "setting": "VEGF-A165/NRP-1 complex", "result": "165 ± 21.1", "unit": "µM"}]}
{"compound": "N=C(N)NCCCC[C@H](N)C(=O)NCCCC[C@H](N)C(=O)N[C@@H](CN)C(=O)N1CCC[C@H]1C(=O)N[C@@H](CCCNC(N)=O)C(=O)O", "note": "[Compound 9, Lys(Har)-Dap-Pro-Cit] (H-K(hArg)[Dap]P[Cit]-OH)", "values": [{"measurement": "IC50", "setting": "VEGF-A165/NRP-1 complex", "result": "170 ± 55.6", "unit": "µM"}]}
{"compound": "N=C(N)NCCCC[C@H](N)C(=O)NCCCC[C@H](N)C(=O)N[C@@H](CCN)C(=O)N1CCC[C@H]1C(=O)N[C@@H](Cc1ccc(CN)cc1)C(=O)O", "note": "[Compound 12, Lys(Har)-Dab-Pro-Phe(4-CH2-NH2)] (H-K(hArg)[Dab]P[Phe(4-CH2NH2)]-OH)", "values": [{"measurement": "IC50", "setting": "VEGF-A165/NRP-1 complex", "result": "19.8 ± 1.8", "unit": "µM"}]}
{"compound": "N=C(N)NCCCC[C@H](N)C(=O)NCCCC[C@H](N)C(=O)N[C@@H](CCN)C(=O)N1CCC[C@H]1C(=O)N[C@@H](CCNC(=N)N)C(=O)O", "note": "[Compound 6, Lys(Har)-Dab-Pro-Agb] (H-K(hArg)[Dab]P[Agb]-OH)", "values": [{"measurement": "IC50", "setting": "VEGF-A165/NRP-1 complex", "result": "106 ± 17.4", "unit": "µM"}]}
{"compound": "NC(N)=NCCC[C@H](NC(=O)c1ccccc1)C(=O)O", "note": "[Compound D11, Nα-benzoyl-Arg-OH]", "values": [{"measurement": "Kd", "setting": "NRP1-b1", "result": 24, "unit": "µM"}]}
{"compound": "N=C(N)NCCCC[C@H](NC(=O)[C@@H]1CCCN1C(=O)[C@H](CN)NC(=O)[C@@H](N)CCCCNC(=O)[C@@H](N)CCCCNC(=N)N)C(=O)O", "note": "[Compound 3, Lys(Har)-Dap-Pro-Har] (H-K(hArg)[Dap]P[hArg]-OH)", "values": [{"measurement": "IC50", "setting": "VEGF-A165/NRP-1 complex", "result": "29.2 ± 1.8", "unit": "µM"}]}
{"compound": "NC(N)=NCCC[C@H](NC(=O)c1sccc1NS(=O)(=O)c1cccc2nsnc12)C(=O)O", "note": "[Compound D12]", "values": [{"measurement": "inhibition at 100 μM", "setting": "PAE/NRP1 cells", "result": 99, "unit": "%"}, {"measurement": "IC50", "setting": "PAE/NRP1 cells", "result": 8, "unit": "µM"}]}
{"compound": "Ala-Thr-Trp-Leu-Pro-Pro6 (ATWLPP; printed: Ala-Thr-Trp-Leu-Pro-Pro) [Compound D2]", "values": [{"measurement": "inhibition at 100 μM", "setting": "[1]", "result": 18, "unit": "%"}]}
{"compound": "CC(C)(C)OC(=O)N[C@@H](CCCN=C(N)N)C(=O)O", "note": "[Compound D9, Nα-Boc-Arg-OH]", "values": [{"measurement": "Kd", "setting": "NRP1-b1", "result": 3, "unit": "µM"}]}
{"compound": "ATWLPPR [Compound A7R, Ala-Thr-Trp-Leu-Pro-Pro-Arg]", "values": [{"measurement": "IC50", "setting": "VEGF-A165/NRP-1 complex", "result": "11.3 ± 3.2", "unit": "µM"}]}
{"compound": "N=C(N)NCCCC[C@H](N)C(=O)NCCCC[C@H](N)C(=O)N[C@@H](CCN)C(=O)N1CCC[C@H]1C(=O)N[C@@H](CCCNC(=N)N)C(=O)O", "note": "[Compound 2, Lys(Har)-Dab-Pro-Arg] (H-K(hArg)[Dab]PR-OH)", "values": [{"measurement": "t½ (stability)", "setting": "[2]", "result": "> 24", "unit": "h"}, {"measurement": "IC50", "setting": "VEGF-A165/NRP-1 complex", "result": "4.7 ± 0.6", "unit": "µM"}]}
{"compound": "N=C(N)NCCCC[C@H](N)C(=O)NCCCC[C@H](N)C(=O)N[C@@H](CCN)C(=O)N1CCC[C@H]1C(=O)N[C@@H](CCCNC(N)=O)C(=O)O", "note": "[Compound 10, Lys(Har)-Dab-Pro-Cit] (H-K(hArg)[Dab]P[Cit]-OH)", "values": [{"measurement": "IC50", "setting": "VEGF-A165/NRP-1 complex", "result": "193 ± 20.6", "unit": "µM"}]}
{"compound": "Ala-Thr-Trp-Leu-Pro-Pro-Lys7-Ala8 (ATWLPPK; C-terminal Ala8; printed: Ala-Thr-Trp-Leu-Pro-Pro-Lys) [Compound D5]", "values": [{"measurement": "inhibition at 100 μM", "setting": "[1]", "result": 18, "unit": "%"}]}
{"compound": "N=C(N)NCCCC[C@H](N)C(=O)NCCCC[C@H](N)C(=O)N[C@@H](CN)C(=O)N1CCC[C@H]1C(=O)N[C@@H](CNC(=N)N)C(=O)O", "note": "[Compound 7, Lys(Har)-Dap-Pro-Agp] (H-K(hArg)[Dap]P[Agp]-OH)", "values": [{"measurement": "IC50", "setting": "VEGF-A165/NRP-1 complex", "result": "148 ± 45.9", "unit": "µM"}]}
{"compound": "Lys-Pro-Ala-Arg (KPAR; printed: Lys-Pro-Ala-Arg) [Compound D6]", "values": [{"measurement": "inhibition at 100 μM", "setting": "PAE/NRP1 cells", "result": 83, "unit": "%"}, {"measurement": "IC50", "setting": "PAE/NRP1 cells", "result": 30, "unit": "µM"}]}
{"compound": "N=C(N)NCCCC[C@H](NC(=O)[C@@H]1CCCN1C(=O)[C@H](CCN)NC(=O)[C@@H](N)CCCCNC(=O)[C@@H](N)CCCCNC(=N)N)C(=O)O", "note": "[Compound 4, Lys(Har)-Dab-Pro-Har] (H-K(hArg)[Dab]P[hArg]-OH)", "values": [{"measurement": "IC50", "setting": "VEGF-A165/NRP-1 complex", "result": "14.3 ± 2.3", "unit": "µM"}]}
{"compound": "N=C(N)NCCCC[C@H](N)C(=O)NCCCC[C@H](N)C(=O)N[C@@H](CN)C(=O)N1CCC[C@H]1C(=O)N[C@@H](CCNC(=N)N)C(=O)O", "note": "[Compound 5, Lys(Har)-Dap-Pro-Agb] (H-K(hArg)[Dap]P[Agb]-OH)", "values": [{"measurement": "IC50", "setting": "VEGF-A165/NRP-1 complex", "result": "87.5 ± 10.3", "unit": "µM"}]}
{"compound": "Ala-Thr-Trp-Leu-Pro-Pro-Ala7 (ATWLPPA; printed: Ala-Thr-Trp-Leu-Pro-Pro-Ala) [Compound D3]", "values": [{"measurement": "inhibition at 100 μM", "setting": "[1]", "result": 17, "unit": "%"}]}
{"compound": "KPA[dR] [Compound D7]", "values": [{"measurement": "inhibition at 100 μM", "setting": "PAE/NRP1 cells", "result": 22, "unit": "%"}]}
{"compound": "Ala-Thr-Trp-Leu-Pro-Pro-Lys7 (ATWLPPK; printed: Ala-Thr-Trp-Leu-Pro-Pro-Lys) [Compound D4]", "values": [{"measurement": "inhibition at 100 μM", "setting": "[1]", "result": 20, "unit": "%"}]}
{"compound": "N=C(N)NCCCC[C@H](N)C(=O)NCCCC[C@H](N)C(=O)N[C@@H](CN)C(=O)N1CCC[C@H]1C(=O)N[C@@H](CCCNC(=N)N)C(=O)O", "note": "[Compound 1, Lys(Har)-Dap-Pro-Arg] (H-K(hArg)[Dap]PR-OH)", "values": [{"measurement": "t½ (stability)", "setting": "[2]", "result": "> 24", "unit": "h"}, {"measurement": "IC50", "setting": "VEGF-A165/NRP-1 complex", "result": "8.4 ± 1.6", "unit": "µM"}]}
{"compound": "Lys-Pro-Ala-Lys (KPAK; printed: Lys-Pro-Ala-Lys) [Compound D8]", "values": [{"measurement": "inhibition at 100 μM", "setting": "PAE/NRP1 cells", "result": 22, "unit": "%"}]}
